Experimental data published in ChEMBL document CHEMBL1130900, “Synthesis and structure-activity relationships of 2-pyridones: II. 8-(Fluoro-substituted pyrrolidinyl)-2-pyridones as antibacterial agents” (Bioorg Med Chem Lett, 1998).
≈ marks a conversion by molar mass, not a printed value.

Columns and labels:
[1] = tested on: Staphylococcus aureus; assay: Antibacterial activity against Staphylococcus aureus A1775 was determined; format: functional
[2] = tested on: Providencia stuartii; assay: Antibacterial activity against Gram-negative Providencia Stuartii CMX640 was determined; format: functional
[3] = Oral bioavailability in rat (dose 5 mg/kg); format: ADME, organism-based; conditions: in vivo
[4] = tested on: Streptococcus equinus; assay: Antibacterial activity against Gram-positive Streptococcus bovis A5169 was determined; format: functional
[5] = tested on: Klebsiella pneumoniae; assay: Antibacterial activity against Klebsiella pneumoniae ATCC 8045 was determined; format: functional
[6] = tested on: Streptococcus pyogenes; assay: Antibacterial activity against Streptococcus pyogenes EES61 was determined; format: functional
[7] = tested on: Pseudomonas aeruginosa; assay: Antibacterial activity against Pseudomonas aeruginosa A-5007 was determined; format: functional
[8] = tested on: Enterococcus faecium; assay: Antibacterial activity against Enterococcus faecium ATCC 8043 was determined; format: functional
[9] = Compound was evaluated for maximal plasma concentration in rat upon 5 mg/kg upon oral administration; format: ADME, organism-based; design: dose 5 mg/kg, route oral
[10] = tested on: Mus musculus; assay: Compound was tested for its effective dose against Staphylococcus aureus NCTC-10649M in mice upon peroral administration; Mice were infected with 1000xLD50; format: functional; conditions: po
[11] = tested on: Escherichia coli; assay: Antibacterial activity against Escherichia coli JUHL was determined; format: functional
[12] = Compound was tested for its effective dose against Escherichia coli JUHL in mice upon peroral administration; format: functional; conditions: Mus musculus, po
[13] = tested on: Staphylococcus aureus; assay: Antibacterial activity against Staphylococcus aureus NCTC-10649M was determined; format: functional
[14] = tested on: Staphylococcus aureus; assay: Effective dose against Staphylococcus aureus NCTC-10649M in mice upon subcutaneous administration; format: functional; conditions: sc
[15] = tested on: Escherichia coli; assay: Effective dose against Escherichia coli JUHL in mice upon subcutaneous administration; format: functional; conditions: sc
[16] = tested on: Klebsiella aerogenes; assay: Antibacterial activity against Enterobacter aerogenes ATCC 13048 was determined; format: functional
[17] = tested on: DNA gyrase (bacterial); assay: Compound was tested for bacterial DNA gyrase activity; conditions: Bacteria
[18] = tested on: Staphylococcus aureus; assay: Effective dose against Staphylococcus aureus NCTC-10649M in mice upon peroral administration; format: functional; conditions: po
[19] = Staphylococcus aureus, read-out: MIC
[20] = Providencia stuartii, read-out: MIC
[21] = Streptococcus equinus, read-out: MIC
[22] = Klebsiella pneumoniae, ATCC 8045, read-out: MIC
[23] = Streptococcus pyogenes, read-out: MIC
[24] = Pseudomonas aeruginosa, read-out: MIC
[25] = Enterococcus faecium, ATCC 8043, read-out: MIC
[26] = Escherichia coli, read-out: MIC
[27] = Klebsiella aerogenes, ATCC 13048, read-out: MIC

Compound	MIC [1, 19]	MIC [2, 20]	MIC [4, 21]	MIC [5, 22]	MIC [6, 23]	MIC [7, 24]	MIC [8, 25]	MIC [11, 26]	ED50 [12]	MIC [13, 19]	ED50 [14]	ED50 [15]	MIC [16, 27]	ED50 [18]	MIC [13]	MIC [16]	further results
Cc1c(N2C[C@@H](N)[C@@H](F)C2)c(F)cn2c(=O)c(C(=O)O)cc(C3CC3)c12	1.56 µg/mL (≈ 4.29 µM)	0.78 µg/mL (≈ 2.15 µM)	0.2 µg/mL (≈ 0.55 µM)	0.05 µg/mL (≈ 0.138 µM)	0.1 µg/mL (≈ 0.275 µM)	0.39 µg/mL (≈ 1.07 µM)	0.1 µg/mL (≈ 0.275 µM)	0.02 µg/mL (≈ 0.055 µM)	7.4 mg/kg/day	0.02 µg/mL (≈ 0.055 µM)	1.5 mg/kg/day	1.8 mg/kg/day	0.05 µg/mL (≈ 0.138 µM)	–	–	–	bioavailability [3]: 34%; Cmax [9]: 900 ng/mL; ED50 [10]: 7.7 mg/kg/day
Cc1c(N2C[C@@H](N)[C@H](F)C2)c(F)cn2c(=O)c(C(=O)O)cc(C3CC3)c12 (stereo in doubt; 3a) [listing 1 of 2 here]	–	–	–	–	–	–	–	–	–	–	–	–	–	–	–	–	CC50 [17]: 0.7 µg/mL (≈ 1.93 µM)
Cc1c(N2C[C@@H](N)[C@H](C(F)(F)F)C2)c(F)cn2c(=O)c(C(=O)O)cc(C3CC3)c12	1.56 µg/mL (≈ 3.77 µM)	3.1 µg/mL (≈ 7.5 µM)	0.39 µg/mL (≈ 0.943 µM)	0.05 µg/mL (≈ 0.121 µM)	0.2 µg/mL (≈ 0.484 µM)	0.78 µg/mL (≈ 1.89 µM)	0.2 µg/mL (≈ 0.484 µM)	0.05 µg/mL (≈ 0.121 µM)	–	0.02 µg/mL (≈ 0.0484 µM)	4.8 mg/kg/day	–	0.2 µg/mL (≈ 0.484 µM)	25.4 mg/kg/day	–	–	CC50 [17]: 3.8 µg/mL (≈ 9.19 µM)
Cc1c(N2C[C@@H](N)[C@H](F)C2)c(F)cn2c(=O)c(C(=O)O)cc(C3CC3)c12 (stereo in doubt; 3a-R,R7)	1.56 µg/mL (≈ 4.29 µM)	1.56 µg/mL (≈ 4.29 µM)	0.39 µg/mL (≈ 1.07 µM)	0.02 µg/mL (≈ 0.055 µM)	0.2 µg/mL (≈ 0.55 µM)	1.56 µg/mL (≈ 4.29 µM)	0.2 µg/mL (≈ 0.55 µM)	–	> 10 mg/kg/day	–	4.8 mg/kg/day	> 5 mg/kg/day	–	7.3 mg/kg/day	0.05 µg/mL (≈ 0.138 µM)	0.2 µg/mL (≈ 0.55 µM)	–
Cc1c(N2C[C@H](N)[C@@H](F)C2)c(F)cn2c(=O)c(C(=O)O)cc(C3CC3)c12	1.56 µg/mL (≈ 4.29 µM)	0.78 µg/mL (≈ 2.15 µM)	0.39 µg/mL (≈ 1.07 µM)	0.02 µg/mL (≈ 0.055 µM)	0.39 µg/mL (≈ 1.07 µM)	0.78 µg/mL (≈ 2.15 µM)	0.39 µg/mL (≈ 1.07 µM)	–	> 10 mg/kg/day	0.05 µg/mL (≈ 0.138 µM)	4.8 mg/kg/day	> 5 mg/kg/day	0.2 µg/mL (≈ 0.55 µM)	25 mg/kg/day	–	–	–
Cc1c(N2C[C@@H](CF)[C@H](N)C2)c(F)cn2c(=O)c(C(=O)O)cc(C3CC3)c12 (racemic)	–	–	–	–	–	–	–	–	–	–	–	–	–	–	0.2 µg/mL (≈ 0.53 µM)	0.05 µg/mL (≈ 0.132 µM)	MIC [1]: 3.1 µg/mL (≈ 8.21 µM); MIC [2]: 0.78 µg/mL (≈ 2.07 µM); MIC [5]: 0.005 µg/mL (≈ 0.0132 µM); MIC [6]: 0.1 µg/mL (≈ 0.265 µM); MIC [7]: 0.39 µg/mL (≈ 1.03 µM); MIC [8]: 0.1 µg/mL (≈ 0.265 µM); MIC [11]: 0.01 µg/mL (≈ 0.0265 µM)
Cc1c(N2CCC(CN)(CF)C2)c(F)cn2c(=O)c(C(=O)O)cc(C3CC3)c12 (stereo unspecified)	1.56 µg/mL (≈ 3.99 µM)	0.78 µg/mL (≈ 1.99 µM)	0.1 µg/mL (≈ 0.255 µM)	0.1 µg/mL (≈ 0.255 µM)	0.05 µg/mL (≈ 0.128 µM)	0.78 µg/mL (≈ 1.99 µM)	0.1 µg/mL (≈ 0.255 µM)	0.05 µg/mL (≈ 0.128 µM)	> 10 mg/kg/day	0.02 µg/mL (≈ 0.0511 µM)	1.5 mg/kg/day	1.5 mg/kg/day	–	3.8 mg/kg/day	–	–	–
Cc1c(N2C[C@H](CF)[C@H](N)C2)c(F)cn2c(=O)c(C(=O)O)cc(C3CC3)c12	1.56 µg/mL (≈ 4.13 µM)	0.39 µg/mL (≈ 1.03 µM)	–	0.005 µg/mL (≈ 0.0132 µM)	0.02 µg/mL (≈ 0.053 µM)	0.2 µg/mL (≈ 0.53 µM)	0.1 µg/mL (≈ 0.265 µM)	0.005 µg/mL (≈ 0.0132 µM)	–	0.01 µg/mL (≈ 0.0265 µM)	–	–	0.02 µg/mL (≈ 0.053 µM)	–	–	–	–
Cc1c(N2C[C@H](CF)[C@@H](N)C2)c(F)cn2c(=O)c(C(=O)O)cc(C3CC3)c12	3.1 µg/mL (≈ 8.21 µM)	0.78 µg/mL (≈ 2.07 µM)	0.39 µg/mL (≈ 1.03 µM)	0.002 µg/mL (≈ 0.0053 µM)	0.2 µg/mL (≈ 0.53 µM)	0.39 µg/mL (≈ 1.03 µM)	0.2 µg/mL (≈ 0.53 µM)	0.1 µg/mL (≈ 0.265 µM)	3 mg/kg/day	0.01 µg/mL (≈ 0.0265 µM)	1.2 mg/kg/day	0.4 mg/kg/day	0.02 µg/mL (≈ 0.053 µM)	11.5 mg/kg/day	–	–	–
Cc1c(N2C[C@@H](N)[C@H](F)C2)c(F)cn2c(=O)c(C(=O)O)cc(C3CC3)c12 (stereo in doubt; 3a) [listing 2 of 2 here]	–	–	–	–	–	–	–	0.02 µg/mL (≈ 0.055 µM)	–	–	–	–	–	–	0.02 µg/mL (≈ 0.055 µM)	0.05 µg/mL (≈ 0.138 µM)	MIC [1]: 0.78 µg/mL (≈ 2.15 µM); MIC [2]: 1.56 µg/mL (≈ 4.29 µM); MIC [4]: 0.2 µg/mL (≈ 0.55 µM); MIC [5]: 0.02 µg/mL (≈ 0.055 µM); MIC [6]: 0.2 µg/mL (≈ 0.55 µM); MIC [7]: 0.78 µg/mL (≈ 2.15 µM); MIC [8]: 0.1 µg/mL (≈ 0.275 µM)
